Data published in ChEMBL document CHEMBL3885881, “DrugMatrix”.

Species: Rattus norvegicus
Experiment: DrugMatrix - Regimen: Daily Repeat
Assay type: toxicity, organism-based, Sprague-Dawley
Parameters: regimen Daily Repeat, gender Male, age 6-8 weeks
Settings: in vivo, iv, vehicle 100 % SALINE; for ABSOLUTE BASOPHIL / ABSOLUTE EOSINOPHIL / ABSOLUTE LYMPHOCYTE / ABSOLUTE MONOCYTE / ABSOLUTE SEGMENTED NEUTROPHIL / BASOPHIL / EOSINOPHIL / ERYTHROCYTE COUNT / HEMATOCRIT / HEMOGLOBIN / LEUKOCYTE COUNT / LYMPHOCYTE / MEAN CORPUSCULAR HEMOGLOBIN / MEAN CORPUSCULAR HEMOGLOBIN CONCENTRATION / MEAN CORPUSCULAR VOLUME / MONOCYTE / NEUTROPHIL / NUCLEATED RED BLOOD CELLS / PLATELET COUNT: tissue Blood; for ALANINE AMINOTRANSFERASE / ALBUMIN / ALKALINE PHOSPHATASE / ASPARTATE AMINOTRANSFERASE / BLOOD UREA NITROGEN / CARBON DIOXIDE / CHLORIDE / CHOLESTEROL / CREATINE PHOSPHOKINASE / CREATININE / GLUCOSE / LACTATE DEHYDROGENASE / LIPASE / PHOSPHORUS / POTASSIUM / SODIUM / TOTAL BILIRUBIN / TOTAL PROTEIN / URIC ACID: tissue Plasma
[1] = 0 mg/kg, 72 h, dose level Control, time 3 day
[2] = 0 mg/kg, 120 h, dose level Control, time 5 day
[3] = 3 mg/kg, 72 h, dose level Low, time 3 day

## O=c1[nH]c(=O)n([C@H]2C[C@H](O)[C@@H](CO)O2)cc1F [FLOXURIDINE]
[1]
  ABSOLUTE BASOPHIL: 0 CELLS/uL
  ABSOLUTE EOSINOPHIL: 0 CELLS/uL
  ABSOLUTE LYMPHOCYTE: 11636.83 CELLS/uL
  ABSOLUTE MONOCYTE: 159 CELLS/uL
  ABSOLUTE SEGMENTED NEUTROPHIL: 1170.83 CELLS/uL
  BASOPHIL: 0%
  EOSINOPHIL: 0%
  ERYTHROCYTE COUNT: 5.46 x10E6/uL
  HEMATOCRIT: 34.05%
  HEMOGLOBIN: 13.58 G/DL
  LEUKOCYTE COUNT: 12.97 x10E3/uL
  LYMPHOCYTE: 89.67%
  MEAN CORPUSCULAR HEMOGLOBIN: 24.87 pg
  MEAN CORPUSCULAR HEMOGLOBIN CONCENTRATION: 39.9 G/DL
  MEAN CORPUSCULAR VOLUME: 62.3 fL
  MONOCYTE: 1.33%
  NEUTROPHIL: 9%
  NUCLEATED RED BLOOD CELLS: 0.17 /100WBC
  PLATELET COUNT: 824 x10E3/uL
  ALANINE AMINOTRANSFERASE: 64.83 u/L
  ALBUMIN: 4.08 G/DL
  ALKALINE PHOSPHATASE: 421 u/L
  ASPARTATE AMINOTRANSFERASE: 116.83 u/L
  BLOOD UREA NITROGEN: 16.83 mg/dL
  CARBON DIOXIDE: 28 mmol/L
  CHLORIDE: 101.33 MEQ/L
  CHOLESTEROL: 74.17 mg/dL
  CREATINE PHOSPHOKINASE: 748.5 u/L
  CREATININE: 0.22 mg/dL
  GLUCOSE: 152.83 mg/dL
  LACTATE DEHYDROGENASE: 578.5 u/L
  LIPASE: 9.83 u/L
  PHOSPHORUS: 11.63 mg/dL
  POTASSIUM: 5.93 MEQ/L
  SODIUM: 142.1 MEQ/L
  TOTAL BILIRUBIN: 0.17 mg/dL
  TOTAL PROTEIN: 5.77 G/DL
  URIC ACID: 1.43 mg/dL
[2]
  ABSOLUTE BASOPHIL: 0 CELLS/uL
  ABSOLUTE EOSINOPHIL: 159.17 CELLS/uL
  ABSOLUTE LYMPHOCYTE: 12267.5 CELLS/uL
  ABSOLUTE MONOCYTE: 30 CELLS/uL
  ABSOLUTE SEGMENTED NEUTROPHIL: 1160 CELLS/uL
  BASOPHIL: 0%
  EOSINOPHIL: 1.17%
  ERYTHROCYTE COUNT: 5.52 x10E6/uL
  HEMATOCRIT: 34.3%
  HEMOGLOBIN: 13.73 G/DL
  LEUKOCYTE COUNT: 13.62 x10E3/uL
  LYMPHOCYTE: 90.5%
  MEAN CORPUSCULAR HEMOGLOBIN: 24.92 pg
  MEAN CORPUSCULAR HEMOGLOBIN CONCENTRATION: 40.07 G/DL
  MEAN CORPUSCULAR VOLUME: 62.17 fL
  MONOCYTE: 0.17%
  NEUTROPHIL: 8.17%
  NUCLEATED RED BLOOD CELLS: 0.17 /100WBC
  PLATELET COUNT: 1261.83 x10E3/uL
  ALANINE AMINOTRANSFERASE: 58.67 u/L
  ALBUMIN: 4.15 G/DL
  ALKALINE PHOSPHATASE: 364.67 u/L
  ASPARTATE AMINOTRANSFERASE: 105.33 u/L
  BLOOD UREA NITROGEN: 17.67 mg/dL
  CARBON DIOXIDE: 26.5 mmol/L
  CHLORIDE: 101.67 MEQ/L
  CHOLESTEROL: 63 mg/dL
  CREATINE PHOSPHOKINASE: 480.67 u/L
  CREATININE: 0.17 mg/dL
  GLUCOSE: 144.67 mg/dL
  LACTATE DEHYDROGENASE: 540.33 u/L
  LIPASE: 10.33 u/L
  PHOSPHORUS: 11.52 mg/dL
  POTASSIUM: 6.12 MEQ/L
  SODIUM: 142.45 MEQ/L
  TOTAL BILIRUBIN: 0.18 mg/dL
  TOTAL PROTEIN: 5.73 G/DL
  URIC ACID: 1.48 mg/dL
[3]
  ABSOLUTE BASOPHIL: 0 CELLS/uL
  ABSOLUTE EOSINOPHIL: 0 CELLS/uL
  ABSOLUTE LYMPHOCYTE: 9392.67 CELLS/uL
  ABSOLUTE MONOCYTE: 101.67 CELLS/uL
  ABSOLUTE SEGMENTED NEUTROPHIL: 505.67 CELLS/uL
  BASOPHIL: 0%
  EOSINOPHIL: 0%
  ERYTHROCYTE COUNT: 5.12 x10E6/uL
  HEMATOCRIT: 32.33%
  HEMOGLOBIN: 13.1 G/DL
  LEUKOCYTE COUNT: 10 x10E3/uL
  LYMPHOCYTE: 94%
  MEAN CORPUSCULAR HEMOGLOBIN: 25.7 pg
  MEAN CORPUSCULAR HEMOGLOBIN CONCENTRATION: 40.53 G/DL
  MEAN CORPUSCULAR VOLUME: 63.17 fL
  MONOCYTE: 1%
  NEUTROPHIL: 5%
  NUCLEATED RED BLOOD CELLS: 0 /100WBC
  PLATELET COUNT: 833.67 x10E3/uL
  ALANINE AMINOTRANSFERASE: 54.67 u/L
  ALBUMIN: 4.4 G/DL
  ALKALINE PHOSPHATASE: 391.67 u/L
  ASPARTATE AMINOTRANSFERASE: 100 u/L
  BLOOD UREA NITROGEN: 17 mg/dL
  CARBON DIOXIDE: 29.67 mmol/L
  CHLORIDE: 101 MEQ/L
  CHOLESTEROL: 79 mg/dL
  CREATINE PHOSPHOKINASE: 755 u/L
  CREATININE: 0.22 mg/dL
  GLUCOSE: 171 mg/dL
  LACTATE DEHYDROGENASE: 240.33 u/L
  LIPASE: 9 u/L
  PHOSPHORUS: 10.77 mg/dL
  POTASSIUM: 6.26 MEQ/L
  SODIUM: 142.13 MEQ/L
  TOTAL BILIRUBIN: 0.2 mg/dL
  TOTAL PROTEIN: 6.17 G/DL
  URIC ACID: 2.23 mg/dL
